#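 Briefly, cells in 96-well plates were exposed to five compound concentrations for 48 h, and endpoints were estimated by linear interpolation. GI50: concentration for 50% inhibition of growth. Definition used: TGI = concentration required for complete inhibition of growth.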
# Key:
# Experiment in all cases: DTP human tumour cell line panel, 48 h
# RPMI-8226 leukemia = tested on: RPMI-8226 leukemia
# RXF 393 renal = tested on: RXF 393 renal
# ACHN renal = tested on: ACHN renal
# SF-268 CNS = tested on: SF-268 CNS
# OVCAR-3 ovarian = tested on: OVCAR-3 ovarian
# EKVX NSCLC = tested on: EKVX NSCLC
# NCI-H23 lung = tested on: NCI-H23 lung
# HCC-2998 colon = tested on: HCC-2998 colon
# HCT-15 colon = tested on: HCT-15 colon
# PC-3 prostate = tested on: PC-3 prostate
# A549 NSCLC = tested on: A549 NSCLC
# HT29 colon = tested on: HT29 colon
# DU-145 prostate = tested on: DU-145 prostate
# A498 renal = tested on: A498 renal
# HS 578T breast = tested on: HS 578T breast
# KM12 colon = tested on: KM12 colon
# SF-295 CNS = tested on: SF-295 CNS
# HOP-62 NSCLC = tested on: HOP-62 NSCLC
SMILES,TGI (RPMI-8226 leukemia) [µM],TGI (RXF 393 renal) [µM],TGI (ACHN renal) [µM],TGI (SF-268 CNS) [µM],TGI (OVCAR-3 ovarian) [µM],TGI (EKVX NSCLC) [µM],TGI (NCI-H23 lung) [µM],TGI (HCC-2998 colon) [µM],TGI (HCT-15 colon) [µM],TGI (PC-3 prostate) [µM],TGI (A549 NSCLC) [µM],TGI (HT29 colon) [µM],TGI (DU-145 prostate) [µM],TGI (A498 renal) [µM],TGI (HS 578T breast) [µM],TGI (KM12 colon) [µM],TGI (SF-295 CNS) [µM],TGI (HOP-62 NSCLC) [µM],GI50 (HCC-2998 colon) [µM],GI50 (A498 renal) [µM]
Cn1c(Cl)cn2c3nc4ccccc4nc3c(=O)c(C#N)c12,> 100,> 100,> 100,> 100,> 100,> 100,> 100,> 67.8,> 100,> 100,> 100,> 100,> 100,98.8,> 100,> 100,> 100,,,
Nc1ncnc2c1ncn2C1OC(CO)C(O)C(O)C1O (centres undefined),> 100,,> 100,> 100,> 100,> 100,> 100,> 100,> 100,> 100,> 100,> 100,> 100,> 100,> 100,> 100,> 100,> 100,,
CCN(CC)c1c(-c2c(N(CC)CC)c(OC(C)=O)c3sccn3c2=O)c(=O)n2ccsc2c1OC(C)=O,> 100,,> 100,> 100,> 100,> 100,> 100,> 100,> 100,> 100,,> 100,> 100,> 100,> 100,> 100,> 100,46.9,,
Cc1cc2nc(N3C(=O)/C(=C/c4ccccc4S)N=C3c3ccccc3)sc2cc1C,> 100,94.4,> 100,> 100,> 100,> 100,,> 100,> 100,58.1,> 100,76.7,> 100,55.1,> 100,> 100,> 100,> 100,,
CC1=NN(C(=O)CC(=O)Nc2ccc(C)cc2)C(=O)C1N=Nc1ccc(S(=O)(=O)c2ccc(N=NC3C(=O)N(C(=O)CC(=O)Nc4ccc(C)cc4)N=C3C)cc2)cc1 (centres undefined),> 100,> 100,> 100,> 100,> 100,> 100,> 100,> 100,> 100,> 100,> 100,,> 100,> 100,> 100,> 100,> 100,> 100,,
COC(=O)c1c2c(cc3c1CC1(Cc4ccc(C(C)=O)cc4C1)C3)CCC2 (centres undefined),> 100,80,> 100,> 100,> 100,> 100,> 100,,> 100,82.2,> 100,89,> 100,> 100,80.7,> 100,> 100,> 100,,
COc1ccc(/C=C2\N=C(SC)N(CN3CCCCC3)C2=O)cc1,> 100,,> 100,> 100,> 100,> 100,> 100,,> 100,> 100,> 100,> 100,> 100,> 100,> 100,> 100,> 100,> 100,,
CC(=O)c1cccc(Nc2nc3ccc(Cl)cc3c3[nH]c4ccccc4c23)c1,> 100,,40.6,36.9,8.16,14.9,> 73.8,> 100,> 100,30.9,8.45,48.5,26.8,7.26,66.4,> 100,11.1,15.4,14.2,2.15
CCOC(=O)[C@@H]1CCN2CN(c3ccc(OC)cc3)N=C(c3ccccc3)[C@@]12c1ccccc1,82.6,35.7,91.5,> 100,,> 100,73.5,67.1,80.6,> 100,> 100,72.4,70.7,53.5,70.3,> 100,77.1,62.6,,
C=CCc1ccccc1CC1(OCC)OC(=O)c2ccccc21 (centres undefined),> 100,> 100,> 100,> 100,> 100,> 100,> 100,> 100,> 100,> 100,> 100,> 100,> 100,> 100,> 100,,> 100,> 100,,
Cc1ccc(C2SC(N)=Nc3c2c(C)nn3C(=O)c2ccccc2O)cc1 (centres undefined),> 10,> 10,> 10,> 10,> 10,> 10,> 10,,> 10,> 10,> 10,> 10,> 10,> 10,5.27,> 10,,> 10,,
c1ccc2c(c1)cc1c3[nH]c4ccccc4c3ccn21,> 10,> 10,> 10,> 10,> 10,> 10,> 10,> 10,> 10,> 10,> 10,> 10,> 10,,> 10,> 10,> 10,> 10,,
O=C(c1ccccc1)N1OCCC1Nc1ccc(Br)cc1 (centres undefined),> 10,> 10,> 10,> 10,> 10,> 10,> 10,> 10,> 10,> 10,> 10,> 10,> 10,,> 10,,> 10,> 10,,

# Source: PubChem BioAssay (NCI)
